Reference: ChEMBL document CHEMBL1201862, “PubChem BioAssay data set” (2004)
Active and inactive are the calls of the source.

Columns and labels:
[1] = target: T1, Polyadenylate-binding protein 1 (Homo sapiens, UniProt P11940); assay: MLLE binding blockers, Cy5 peptide tracer – biochemical, fluorescence polarization, Cy5-PAM2 peptide, secondary, miRNA deadenylation inhibitor project, dose response (AID 602260); assay type: functional; settings: read-out: IC50_Mean
[2] = target: T1, Polyadenylate-binding protein 1; assay: MLLE domain peptide-binding blockers, IC50 – biochemical, fluorescence polarization, FITC-PAM2 peptide, dose response (AID 602259); assay type: functional; settings: read-out: IC50_Mean
[3] = target: T2, Calpain-2 catalytic subunit (Sus scrofa, UniProt P43367); assay: m-calpain protease blockers, concentration series – biochemical, fluorogenic peptide substrate, dose response (AID 1420); assay type: functional
T2 sequence (P43367 whole entry): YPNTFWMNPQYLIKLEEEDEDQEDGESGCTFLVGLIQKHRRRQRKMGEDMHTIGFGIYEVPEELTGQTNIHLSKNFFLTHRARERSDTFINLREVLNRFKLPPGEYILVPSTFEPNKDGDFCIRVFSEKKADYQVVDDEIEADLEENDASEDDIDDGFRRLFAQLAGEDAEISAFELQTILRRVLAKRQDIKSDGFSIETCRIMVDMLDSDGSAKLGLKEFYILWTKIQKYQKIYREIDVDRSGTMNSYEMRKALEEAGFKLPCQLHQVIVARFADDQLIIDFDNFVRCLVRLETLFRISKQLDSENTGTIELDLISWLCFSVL

[4] = target: FAD-linked sulfhydryl oxidase ALR (Homo sapiens, UniProt P55789); assay: ALR-catalysed DTT oxidation blockers – biochemical, H2O2 detection, luminescence, cherry-pick, dose response (AID 493248)
Fatty acid synthase [5] = target: T3, Fatty acid synthase (Homo sapiens, UniProt P49327); assay: inhibition of human FAS-TE enzyme activity – biochemical, kinetic fluorescence intensity, dose response (AID 624326); assay type: functional;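 note: rate of fluorescence rise from hydrolysis of a fluorogenic O-methyl fluorescein ester substrate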
Fatty acid synthase [6] = target: T3, Fatty acid synthase; assay: inhibition of human FAS-TE enzyme activity – biochemical, endpoint fluorescence intensity, uHTS hits, dose response (AID 624327); assay type: functional;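 note: fluorescence from hydrolysis of an O-methyl fluorescein acyl ester substrate by the enzyme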
[7] = DRD fibroblast viability loss – cell-based, non-viral oncogenic, luminescence, dose response (AID 1934); assay type: functional; settings: Homo sapiens
BJ [8] = assay: cells; assay type: functional, cell-based; settings: Homo sapiens
BJ [9] = assay: BJ-TERT fibroblast viability loss – cell-based, RAS-independent, luminescence, dose response (AID 1933); assay type: functional; settings: Homo sapiens
BJ [10] = assay: BJ-TERT-LT-ST fibroblast viability loss – cell-based, RAS-independent, luminescence, dose response (AID 1935); assay type: functional; settings: Homo sapiens;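 note: BJ fibroblasts immortalized with TERT plus LT and ST oncogenes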
cells [11] = assay type: functional, cell-based
cells [12] = assay type: functional, cell-based; remark: listed apart in the source
[13] = blockers of bursicon-stimulated LGR2 cAMP reporter – cell-based, HEK293, CRE-luciferase reporter, cherry pick, set 2, dose response (AID 743343); assay type: functional;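 note: transfected cells were stimulated with diluted bursicon conditioned medium after compound addition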
[14] = blockade of melanocortin 4 receptor signaling – cell-based, plate reader, cherry pick, counter-screen for LGR2 antagonist project, dose response (AID 743444); assay type: functional;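 note: transfected HEK 293 cells stimulated with alpha-MSH peptide; potency of inhibitors of the alpha-MSH evoked signal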
[15] = target: Glyceraldehyde-3-phosphate dehydrogenase (Homo sapiens, UniProt P04406)
Streptokinase A = target: T4, Streptokinase A (Streptococcus pyogenes serotype M1, UniProt P10520); assay: viability-normalized secreted streptokinase activity reduction – plasminogen activation absorbance, OD405, dose response (AID 1914); assay type: functional, Streptococcus pyogenes M1 GAS;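 note: secreted streptokinase activity via plasminogen activation per viability signal from cell pellet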
T4 sequence (P10520 whole entry): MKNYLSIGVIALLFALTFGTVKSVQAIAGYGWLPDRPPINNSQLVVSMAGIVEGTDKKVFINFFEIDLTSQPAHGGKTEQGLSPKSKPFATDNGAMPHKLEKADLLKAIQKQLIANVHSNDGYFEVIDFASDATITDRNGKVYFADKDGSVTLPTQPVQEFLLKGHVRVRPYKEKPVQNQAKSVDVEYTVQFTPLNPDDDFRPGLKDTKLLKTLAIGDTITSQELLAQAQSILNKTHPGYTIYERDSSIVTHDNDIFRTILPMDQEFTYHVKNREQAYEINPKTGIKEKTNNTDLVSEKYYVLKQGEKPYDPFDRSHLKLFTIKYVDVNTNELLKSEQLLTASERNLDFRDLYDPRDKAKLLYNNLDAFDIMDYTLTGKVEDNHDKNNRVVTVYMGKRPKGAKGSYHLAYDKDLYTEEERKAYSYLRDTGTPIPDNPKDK

[16] = system: Streptococcus sp. 'group A'; assay: Streptococcus pyogenes SK(-)GAS viability under kanamycin – luminescence, BacTiterGlo, confirmation, counter-screen for streptokinase expression inhibitor project, dose response (AID 1900); assay type: functional, organism-based
Streptococcus = assay: GAS UMAA2166 growth inhibition – luminescence, BacTiterGlo, counter-screen for streptokinase expression inhibitor project, dose response (AID 1915); assay type: functional, organism-based;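 note: potency for reduction of bacterial viability or growth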
Nonstructural protein 1 = Nonstructural protein 1 (Influenza A virus, UniProt Q194T2); assay type: functional, Influenza A virus (A/California/07/2009(H1N1))
Genome polyprotein = Genome polyprotein (dengue virus type 2, UniProt P29990); assay: flavivirus cap methylation enzyme inhibition – biochemical, confirmation dose response, primary screen (AID 588689); assay type: functional
[17] = THP-1 cell cytotoxicity, dose response, cytotoxicity control for non-replicating M. tuberculosis project (AID 489025); assay type: functional
[18] = target: Glucose-6-phosphate 1-dehydrogenase (Homo sapiens, UniProt P11413); assay: inhibition of Homo sapiens G6PD, dose series – biochemical, fluorescence, selectivity assay for P. falciparum G6PD inhibitor project, dose response (AID 504792); assay type: functional
[19] = reduction of Shn3 3'UTR-driven luciferase in osteoblasts – cell-based, Clone20 osteoblasts, firefly luciferase, cherry-picked, dose response (AID 624132); assay type: functional;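 note: firefly luciferase luminescence from reporter carrying the Shn3 3'UTR in osteoblasts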
[20] = non-specific 3'UTR reporter inhibition in Clone20-Shn3RL – cell-based, Renilla luciferase, cherry-picked, counter-screen for Shn3 inhibitor project, dose response (AID 624133); assay type: functional
[21] = A549 cell cytotoxicity, dose response, cytotoxicity control, plate reader, cherry-pick, antagonist series (AID 743412); assay type: functional, cell-based

Genome polyprotein, sequence (P29990 2492-3391 limits assumed): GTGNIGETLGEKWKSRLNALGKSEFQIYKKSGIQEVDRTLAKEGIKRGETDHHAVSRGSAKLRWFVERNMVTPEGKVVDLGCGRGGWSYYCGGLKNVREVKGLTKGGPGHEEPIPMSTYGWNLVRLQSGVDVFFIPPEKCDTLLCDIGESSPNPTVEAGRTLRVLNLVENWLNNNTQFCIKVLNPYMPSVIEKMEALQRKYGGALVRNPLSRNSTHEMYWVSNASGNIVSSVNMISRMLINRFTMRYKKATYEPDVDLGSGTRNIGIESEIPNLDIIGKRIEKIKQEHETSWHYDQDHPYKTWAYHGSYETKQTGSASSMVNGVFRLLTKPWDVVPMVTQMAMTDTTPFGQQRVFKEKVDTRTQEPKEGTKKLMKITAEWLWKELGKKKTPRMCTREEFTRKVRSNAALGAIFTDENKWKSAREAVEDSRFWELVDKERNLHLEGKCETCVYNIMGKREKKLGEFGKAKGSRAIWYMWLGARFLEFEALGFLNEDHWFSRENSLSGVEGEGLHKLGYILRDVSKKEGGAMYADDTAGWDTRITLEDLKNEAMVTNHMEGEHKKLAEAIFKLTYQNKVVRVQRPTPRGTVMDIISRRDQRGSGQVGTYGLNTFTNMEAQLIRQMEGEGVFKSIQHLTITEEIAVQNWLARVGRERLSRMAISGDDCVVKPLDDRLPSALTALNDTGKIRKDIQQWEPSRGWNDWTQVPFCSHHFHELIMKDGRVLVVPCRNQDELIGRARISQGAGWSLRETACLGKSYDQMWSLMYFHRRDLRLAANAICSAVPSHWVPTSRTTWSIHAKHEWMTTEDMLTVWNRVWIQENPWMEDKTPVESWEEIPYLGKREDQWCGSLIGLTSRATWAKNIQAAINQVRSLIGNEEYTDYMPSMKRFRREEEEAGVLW
FAD-linked sulfhydryl oxidase ALR, sequence (P55789 whole entry): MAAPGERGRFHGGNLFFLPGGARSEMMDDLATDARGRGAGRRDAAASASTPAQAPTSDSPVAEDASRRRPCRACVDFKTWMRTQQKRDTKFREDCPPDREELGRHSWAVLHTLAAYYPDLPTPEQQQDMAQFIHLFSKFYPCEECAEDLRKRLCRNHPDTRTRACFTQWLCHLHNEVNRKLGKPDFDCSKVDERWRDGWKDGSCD
T3 sequence (P49327 whole entry): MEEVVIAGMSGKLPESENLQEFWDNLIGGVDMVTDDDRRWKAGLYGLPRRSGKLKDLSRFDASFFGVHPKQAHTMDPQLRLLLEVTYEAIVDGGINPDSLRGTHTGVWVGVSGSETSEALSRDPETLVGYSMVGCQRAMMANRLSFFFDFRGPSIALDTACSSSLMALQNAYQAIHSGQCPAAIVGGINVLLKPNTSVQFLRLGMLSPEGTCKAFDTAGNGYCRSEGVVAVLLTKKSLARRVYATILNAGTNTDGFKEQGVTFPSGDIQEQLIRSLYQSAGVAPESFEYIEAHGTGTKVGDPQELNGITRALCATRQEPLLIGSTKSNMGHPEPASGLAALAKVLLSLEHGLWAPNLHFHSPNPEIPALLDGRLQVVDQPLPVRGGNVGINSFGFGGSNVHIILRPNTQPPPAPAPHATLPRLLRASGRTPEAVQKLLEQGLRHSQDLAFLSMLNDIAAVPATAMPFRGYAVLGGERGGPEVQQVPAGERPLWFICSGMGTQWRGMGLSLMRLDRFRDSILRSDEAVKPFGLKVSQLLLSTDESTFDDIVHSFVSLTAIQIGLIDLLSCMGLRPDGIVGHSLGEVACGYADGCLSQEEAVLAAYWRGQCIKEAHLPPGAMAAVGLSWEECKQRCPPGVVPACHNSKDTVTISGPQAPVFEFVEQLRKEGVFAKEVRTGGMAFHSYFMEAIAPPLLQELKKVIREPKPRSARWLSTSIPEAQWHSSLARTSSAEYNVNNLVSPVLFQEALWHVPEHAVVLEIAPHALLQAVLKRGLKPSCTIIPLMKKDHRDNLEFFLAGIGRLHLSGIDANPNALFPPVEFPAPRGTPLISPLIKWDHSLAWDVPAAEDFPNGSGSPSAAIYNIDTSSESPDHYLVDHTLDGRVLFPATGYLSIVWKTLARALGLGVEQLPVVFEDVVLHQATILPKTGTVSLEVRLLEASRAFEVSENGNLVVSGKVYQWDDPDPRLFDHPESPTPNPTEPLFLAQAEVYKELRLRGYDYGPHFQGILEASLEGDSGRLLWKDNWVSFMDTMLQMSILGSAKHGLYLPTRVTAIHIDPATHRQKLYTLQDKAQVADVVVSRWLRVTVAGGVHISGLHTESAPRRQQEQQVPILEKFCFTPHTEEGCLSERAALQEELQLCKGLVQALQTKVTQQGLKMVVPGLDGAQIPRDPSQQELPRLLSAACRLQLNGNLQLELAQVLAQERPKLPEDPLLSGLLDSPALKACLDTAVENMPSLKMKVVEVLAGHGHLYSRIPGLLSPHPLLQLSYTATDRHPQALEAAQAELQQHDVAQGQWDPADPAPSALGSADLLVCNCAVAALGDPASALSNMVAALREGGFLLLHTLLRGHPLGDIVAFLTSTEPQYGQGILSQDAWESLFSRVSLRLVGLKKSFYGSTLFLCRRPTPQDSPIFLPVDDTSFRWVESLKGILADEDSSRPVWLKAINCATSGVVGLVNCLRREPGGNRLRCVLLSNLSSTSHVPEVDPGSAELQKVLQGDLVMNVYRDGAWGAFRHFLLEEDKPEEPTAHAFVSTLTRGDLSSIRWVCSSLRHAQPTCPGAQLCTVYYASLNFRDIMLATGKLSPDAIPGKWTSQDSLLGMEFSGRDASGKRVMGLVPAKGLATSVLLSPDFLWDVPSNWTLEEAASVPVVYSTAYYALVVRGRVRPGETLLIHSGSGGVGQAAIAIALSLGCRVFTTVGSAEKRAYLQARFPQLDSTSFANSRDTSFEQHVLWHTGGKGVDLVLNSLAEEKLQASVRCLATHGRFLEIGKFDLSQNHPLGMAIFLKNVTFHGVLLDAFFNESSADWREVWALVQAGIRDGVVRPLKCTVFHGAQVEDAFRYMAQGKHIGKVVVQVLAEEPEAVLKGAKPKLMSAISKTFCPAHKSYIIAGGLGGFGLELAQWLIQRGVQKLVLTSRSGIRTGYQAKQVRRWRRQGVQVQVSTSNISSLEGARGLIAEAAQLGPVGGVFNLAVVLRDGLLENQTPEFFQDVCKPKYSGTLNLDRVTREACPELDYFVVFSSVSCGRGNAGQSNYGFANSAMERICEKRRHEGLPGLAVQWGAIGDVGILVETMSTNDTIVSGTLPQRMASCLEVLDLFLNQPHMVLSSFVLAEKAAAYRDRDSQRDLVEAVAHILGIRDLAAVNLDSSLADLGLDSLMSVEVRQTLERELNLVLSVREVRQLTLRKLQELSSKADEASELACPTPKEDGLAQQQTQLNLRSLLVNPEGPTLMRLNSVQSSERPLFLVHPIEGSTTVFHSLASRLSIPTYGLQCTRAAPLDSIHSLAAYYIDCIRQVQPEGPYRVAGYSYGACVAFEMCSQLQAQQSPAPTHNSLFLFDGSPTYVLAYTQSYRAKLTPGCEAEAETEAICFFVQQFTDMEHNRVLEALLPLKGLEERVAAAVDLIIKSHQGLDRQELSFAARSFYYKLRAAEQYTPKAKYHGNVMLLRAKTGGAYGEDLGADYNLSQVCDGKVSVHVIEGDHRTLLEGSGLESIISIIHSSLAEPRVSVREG
T1 sequence (P11940 whole entry, the tested form may be a part): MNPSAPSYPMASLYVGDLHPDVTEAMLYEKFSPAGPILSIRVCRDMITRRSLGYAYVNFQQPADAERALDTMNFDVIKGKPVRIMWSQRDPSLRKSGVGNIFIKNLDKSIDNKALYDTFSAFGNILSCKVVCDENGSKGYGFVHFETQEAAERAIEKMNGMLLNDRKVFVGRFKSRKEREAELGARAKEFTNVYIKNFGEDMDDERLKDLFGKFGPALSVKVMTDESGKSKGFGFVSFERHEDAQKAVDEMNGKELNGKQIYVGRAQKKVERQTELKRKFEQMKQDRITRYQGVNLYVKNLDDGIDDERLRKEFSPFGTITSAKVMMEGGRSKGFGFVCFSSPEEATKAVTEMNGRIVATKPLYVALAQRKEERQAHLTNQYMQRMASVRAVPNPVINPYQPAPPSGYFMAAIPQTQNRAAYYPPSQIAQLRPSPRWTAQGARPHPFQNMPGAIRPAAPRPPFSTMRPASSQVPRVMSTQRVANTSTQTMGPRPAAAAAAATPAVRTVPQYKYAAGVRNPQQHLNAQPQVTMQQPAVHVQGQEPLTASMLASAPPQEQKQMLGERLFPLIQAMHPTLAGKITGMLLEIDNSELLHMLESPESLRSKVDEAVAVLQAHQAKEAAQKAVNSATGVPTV
Nonstructural protein 1, sequence (Q194T2 whole entry): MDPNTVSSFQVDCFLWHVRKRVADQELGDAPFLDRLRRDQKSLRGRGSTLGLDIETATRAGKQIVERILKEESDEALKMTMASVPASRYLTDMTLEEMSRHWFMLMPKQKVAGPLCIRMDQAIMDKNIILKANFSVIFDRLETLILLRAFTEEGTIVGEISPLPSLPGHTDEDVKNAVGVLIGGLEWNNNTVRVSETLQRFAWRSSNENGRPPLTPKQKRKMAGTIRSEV
Glyceraldehyde-3-phosphate dehydrogenase, sequence (P04406 whole entry): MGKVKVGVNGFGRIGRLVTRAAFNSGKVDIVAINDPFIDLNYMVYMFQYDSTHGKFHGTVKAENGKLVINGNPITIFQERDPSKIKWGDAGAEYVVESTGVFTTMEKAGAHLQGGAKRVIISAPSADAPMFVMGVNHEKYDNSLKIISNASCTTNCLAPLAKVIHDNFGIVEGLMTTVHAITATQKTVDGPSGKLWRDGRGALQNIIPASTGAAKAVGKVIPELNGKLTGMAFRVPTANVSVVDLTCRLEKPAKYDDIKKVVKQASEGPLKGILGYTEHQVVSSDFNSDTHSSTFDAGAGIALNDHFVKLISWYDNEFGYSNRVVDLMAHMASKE

COc1ccc(CC2C(=O)N(C)C(=O)N(C)C2=O)c(OC)c1
IC50 [1]: > 66 µM (inactive)
IC50 [2]: > 66 µM (inactive)

COc1ccc(Cn2nc(-c3ccccc3)c(N3CCCCC3)cc2=O)cc1
IC50 [3]: 10.6 µM (not active)

Cn1c(S)nnc1CNS(=O)(=O)c1ccc(Br)cc1
AC50 [4]: 4.95 µM (active)

CC(NC(=O)COC(=O)c1cc([N+](=O)[O-])ccc1N1CCOCC1)c1ccc(F)cc1 (stereo not given)
IC50 (Fatty acid synthase [5]): 1.48 µM (active)
IC50 (Fatty acid synthase [6]): 1.95 µM (active)

Cc1nc(NC(=O)CCl)sc1C(=O)N(C)C
EC50 [7]: 28.3 µM (active)
EC50 (BJ [8]): > 150 µM (not active)
EC50 (BJ [9]): > 150 µM (not active)
EC50 (BJ [10]): > 150 µM (not active)

S=C(Nc1ccc(Cl)cc1)Nc1ccc2c[nH]nc2c1
EC50 (cells [11]): > 350 µM (not active)
EC50 (cells [12]): > 350 µM (not active)

O=C(O)c1ccccc1C(=O)c1ccc(N2CCOCC2)c([N+](=O)[O-])c1
EC50 [7]: > 150 µM (not active)
EC50 (BJ [8]): > 150 µM (not active)
EC50 (BJ [9]): > 150 µM (not active)
EC50 (BJ [10]): > 150 µM (not active)

COCCN1CN(S(=O)(=O)c2ccccc2)c2nc3ccccc3nc21
IC50 [1]: > 66 µM (inactive)
IC50 [2]: 55.4 µM (inactive)

COc1ccc(CNC(=O)c2ccc3c(c2)N(C)CCS3)cc1
AC50 [4]: 15.4 µM (active)

CCCCC1=CC2=CC(=O)C(C)(OC(=O)CC)C(=O)C2=CN1CCCCO (stereo not given)
IC50 [1]: > 66 µM (inactive)
IC50 [2]: > 66 µM (inactive)

Cc1cccc(NC(=O)COc2cccc3c2CCN(C)C3=O)c1C
EC50 (cells [11]): > 350 µM (not active)
EC50 (cells [12]): > 350 µM (not active)

CC(=O)c1cccc(NC(=S)NC(=O)c2ccc(Br)cc2)c1
IC50 [1]: > 66 µM (inactive)
IC50 [2]: > 66 µM (inactive)

O=C(CSc1ncnc2sc3c(c12)CCCC3)N1CCC(c2noc3ccc(F)cc23)CC1
EC50 [7]: > 150 µM (not active)
EC50 (BJ [8]): > 150 µM (not active)
EC50 (BJ [9]): 30.7 µM (active)
EC50 (BJ [10]): > 150 µM (not active)

Cc1csc(NC(=O)c2ccc(OCC3CCCO3)cc2)n1 (stereo not given)
AC50 [13]: 2.55 µM (active)
AC50 [14]: 1.96 µM (active)

C[C@H]1CN(C2=C(Cl)C(=O)N(c3ccc(Cl)nc3)C2=O)CCN1
IC50 [15]: > 50 µM (inconclusive)

CC(C)(C)c1ccc(C(=O)N/C(=C\c2cccc([N+](=O)[O-])c2)C(=O)Nc2cccc(C(=O)O)c2)cc1
IC50 (Fatty acid synthase [5]): 1.48 µM (active)
IC50 (Fatty acid synthase [6]): 2.44 µM (active)

CCOC(=O)c1ccc(NC(=O)c2[nH]cnc2C(=O)N[C@@H](CCCCNC(=O)OC(C)(C)C)C(=O)OC(C)(C)C)cc1
EC50 (Streptokinase A): > 150 µM (not active)
EC50 [16]: 6.84 µM (active)
IC50 (Fatty acid synthase [5]): 0.463 µM (active)
IC50 (Fatty acid synthase [6]): 0.539 µM (active)
EC50 (Streptococcus): 55.6 µM (active)

Nc1nc(-c2ccccc2)cn1/N=C/c1cccc([N+](=O)[O-])c1
IC50 [15]: > 100 µM (not active)

COc1ccc(N2CCN(C(=O)c3ccccc3N(C)S(=O)(=O)c3ccccc3)CC2)cc1
AC50 [4]: 8.08 µM (active)

CCOC(=O)CCNC(=O)Nc1ccc2nc(C)n(Cc3cccc(Cl)c3)c(=O)c2c1
IC50 [3]: 6.83 µM (not active)

COc1ccc(N2CCN(CCNC(=O)Nc3ccc([N+](=O)[O-])cc3OC)CC2)cc1
IC50 (Nonstructural protein 1): > 100 µM (active)
AC50 [4]: 2.24 µM (active)

N#CCCN(C(=S)NC(=O)c1ccco1)c1ccccc1F
IC50 [1]: > 66 µM (inactive)
IC50 [2]: > 66 µM (inactive)

COc1ccc(Br)cc1/C=C/C(=O)NC(=S)Nc1ccc(Cl)c(C(=O)O)c1
EC50 [16]: 56.5 µM (active)
IC50 (Genome polyprotein): 46.9 µM (active)
EC50 (Streptococcus): 5.98 µM (active)

CCCN1C(=O)/C(=C\C=C2/Sc3ccccc3N2CC)SC1=S
EC50 [7]: > 150 µM (not active)
EC50 (BJ [8]): > 150 µM (not active)
EC50 (BJ [9]): > 150 µM (not active)
EC50 (BJ [10]): > 150 µM (inconclusive)

CCOC(=O)N1CCC(NS(=O)(=O)c2cc3c(cc2Cl)NC(=O)CO3)CC1
CC50 [17]: 33.4 µM (active)

CC(NC(=O)c1ccc(N(C)C)cc1)C(c1cccs1)N1CCN(C)CC1 (stereo not given)
AC50 [4]: 1.24 µM (active)

O=C(COC(=O)CCc1ccccc1)Nc1cc([N+](=O)[O-])ccc1F
IC50 (Fatty acid synthase [5]): 6.27 µM (active)
IC50 (Fatty acid synthase [6]): 5.19 µM (active)

CCCN(CCC)S(=O)(=O)c1ccc(NC(=O)COc2ccccc2)cc1
IC50 [3]: 3.3 µM (not active)

COc1ccc(S(=O)(=O)Nc2nc3ccccc3nc2Nc2cccc(C(=O)O)c2)cc1
IC50 (Genome polyprotein): 34.5 µM (active)

Cn1cc(CN2CCC(C(=O)Nc3cccc(-c4cscn4)c3)CC2)cn1
EC50 (cells [11]): > 350 µM (not active)
EC50 (cells [12]): > 350 µM (not active)

NC(=O)CSc1nnc2ccc(-c3ccc(Cl)cc3)nn12
EC50 (cells [11]): > 350 µM (not active)
EC50 (cells [12]): > 350 µM (not active)

CCOc1ccccc1CN1CCN(S(C)(=O)=O)CC1
EC50 (cells [11]): > 350 µM (not active)
EC50 (cells [12]): > 350 µM (not active)

ON=CN=C(S)Nc1ncc(C(F)(F)F)cc1Cl
IC50 [1]: > 66 µM (inactive)
IC50 [2]: > 66 µM (inactive)

CCc1n[nH]c(C(=O)N2CCCC(Nc3ccc(C(C)C)cc3)C2)c1C (stereo not given)
AC50 [4]: 3.61 µM (active)

O=C(CNC(=O)c1cccs1)OCC(=O)c1ccc([N+](=O)[O-])cc1
IC50 [18]: > 80 µM (inactive)

O=C(O)Cc1ccc(NCc2ccccc2Cl)cc1
AC50 [4]: 4.81 µM (active)

Cc1ccc([C@@H]2CC=C(C(=O)O)[C@H](c3ccc(Br)cc3)N2S(=O)(=O)c2ccccc2C)cc1
IC50 (Genome polyprotein): 34 µM (active)

CCOC(=O)c1sc(NC(=O)CCCn2nc([N+](=O)[O-])c(Cl)c2C)c(C(=O)OCC)c1C
AC50 [19]: 6.34 µM (active)
AC50 [20]: 15.4 µM (active)

S=C(NN=Cc1ccccn1)N(Cc1ccccn1)Cc1ccccn1
IC50 [18]: > 80 µM (inactive)
IC50 (Nonstructural protein 1): 1.59 µM (active)

Cc1ccc(NC2CCCN(C(=O)c3ccnc(Cl)c3)C2)cc1C (stereo not given)
AC50 [4]: 3.32 µM (active)

CN(C)S(=O)(=O)c1cccc(NC(=O)COc2ccccc2C(=O)Nc2ccccc2)c1
AC50 [21]: 30.6 µM (active)
AC50 [13]: 20.1 µM (active)
AC50 [14]: 22.9 µM (active)

COc1ccc(N/N=C(\C#N)C(=N)N2CCCCC2)cc1
AC50 [4]: 0.077 µM (active)
